Data reported in patent US20040006070A1, “Intraspinal continuous infusion of midazolam hydrochloride for the treatment of pain” (priority 2002, published 2004).
Where “and” joins values, the source holds several entries; their conditions need not be identical. Equal entries are not always repeated. Entries after “also recorded” stand apart in the source; their conditions may differ. Structures can show the parent of a compound that is named as a salt.

Tests used:
[1] = Gait monitoring, four-grade scale of behavioral and motor changes; format: in vivo, sheep; parameters: key: Grade 0: animal standing, sheep is able to rise and ambulate without any difficulty; Grade 1: Shuffling of either rear leg or slight limp; slight distortion of normal spinal axis; Grade 2: Loss of righting reflex in one of the rear legs, sheep able to stand without assistance, but with some difficulty; Grade 3: Inability to maintain standing posture; attempts to help animal stand are unsuccessful; conditions: day (1-43)
Text: Daily rectal temperatures were taken and any behavioral/motor changes were noted. Gait monitoring will be conducted as described below based on a four-grade scale for the evaluation of behavioral and motor changes. Grade 0: animal standing, sheep is able to rise and ambulate without any difficulty. Grade 1: Shuffling of either rear leg or slight limp; slight distortion of normal spinal axis. Grade 2: Loss of righting reflex in one of the rear legs, sheep able to stand without assistance, but with some difficulty. Grade 3: Inability to maintain standing posture; attempts to help animal stand are unsuccessful.

Acute Pain Sheep Model = test: Mechanical stimulus device nociceptive testing (% MPE), acute pain sheep model; format: in vivo
Method: (§1) Open-label (known dose) trial: A trial with known midazolam doses was performed in the first 7 sheep. Animals were administered 3 mg/day (N=1), 5 mg/day (N=1), 10 mg/day (N=1), and 15 mg/day (N=4) for 43 days. These doses were chosen based upon previous intrathecal bolus dose studies in rats and humans, with conversion of from species to species based on cerebral spinal fluid (CSF) production rate and total CSF volume. Analgesic activity was assessed using a mechanical stimulus device which produces a stimulus of acute pain by application of force via a blunt needle applied to the shaved front foreleg of the animal. Force is applied with increasing pressure until the animal lifts its leg in response to the painful stimulus. To evaluate the analgesic effect of midazolam, response latencies were expressed as a percentage of the maximum possible effect, % MPE. The response latency is defined as follows: [formula]
A mechanical stimulus device was used for the pain stimulus. […] The force applied to the pin was measured by strain gauges that are incorporated into the device on the leg. The output from the strain gauges was recorded on a millivoltmeter in the control box. […] To compare the effects of midazolam, the data were accumulated over the testing period, and all response latencies were expressed as percentage of the maximum possible effect (MPE) where: [formula] […]

[2] = Toxicity of continuous intrathecal infusion in acute pain sheep: clinical symptoms, necropsy, histology; format: in vivo
Method: The inventors have completed a toxicity and efficacy study of intrathecal midazolam hydrochloride in 15 sheep instrumented with Medtronic SynchroMed® infusion systems. The surgical procedure and the hardware used in these animals was analogous to that utilized in humans. The first sheep was tested for toxicity only (3 mg/day), and all subsequent animals tested for both toxicity and analgesic activity.
as §1
(§2) On day 43 after venous blood samples were taken, animals were euthanized (Beuthanasia 1 ml/4.5 kg IV bolus injection). CSF samples were obtained for analysis (1-2 ml drawn from L-7/S-1 after a laminectomy was performed to expose the dura) of glucose, total protein, and cell differential.

[3] = CSF fluid analysis and routine cultures; format: in vivo, sheep; conditions: for CSF RBC Count Post Mortum / CSF WBC Count Post Mortum / CSF Glucose Post Mortum / CSF Total Protein Post Mortum: day 43
Method: as §2

[4] = double blinded sheep Chicken Hawk #87, 5 mg/day, 43 days
[5] = double blinded sheep Elmer Fudd #437, 5 mg/day, 43 days
[6] = double blinded sheep Leghorn II #815, 15 mg/day, 43 days
[7] = double blinded sheep Petunia #439, 15 mg/day, 43 days
[8] = double blinded sheep Porky #402, 5 mg/day, 43 days
[9] = double blinded sheep Roadrunner #84, 15 mg/day, 43 days
[10] = open label sheep Dot #85, 15 mg/day, 43 days
[11] = open label sheep Wacko #83, 15 mg/day, 43 days
[12] = open label sheep Yacko #91, 15 mg/day, 43 days
[13] = CSF, double blinded study, individual sheep, dose group not given, hydrochloride
[14] = open label sheep Red #473, 3 mg/day
[15] = open label sheep Sandy #518, 5 mg/day
[16] = open label sheep Toad #498, 10 mg/day

Question: With `Cc1ncc2n1-c1ccc(Cl)cc1C(c1ccccc1F)=NC2` [Midazolam, midazolam hydrochloride] as the compound, how does the “Gait Normal 0” value ([1]; double blinded sheep Chicken Hawk #87, 5 mg/day intrathecal infusion) read?
Answer: 0

Question: And the “Gait Normal 0” value ([1]; double blinded sheep Elmer Fudd #437, 5 mg/day intrathecal infusion)?
Answer: 0

Question: What about the “Gait Normal 0” value ([1]; double blinded sheep Leghorn II #815, 15 mg/day intrathecal infusion) of the same compound?
Answer: 0

Question: And the “Gait Normal 0” value ([1]; double blinded sheep Petunia #439, 15 mg/day intrathecal infusion)?
Answer: 0

Question: And the “Gait Normal 0” value ([1]; double blinded sheep Porky #402, 5 mg/day intrathecal infusion)?
Answer: 0

Question: What about the “Gait Normal 0” value ([1]; double blinded sheep Roadrunner #84, 15 mg/day intrathecal infusion) of the same compound?
Answer: 0

Question: What about the “Gait Normal 0” value ([1]; open label sheep #457 Tazz, 15 mg/day intrathecal infusion) of the same compound?
Answer: 0

Question: And the “Gait Normal 0” value ([1]; open label sheep #498 Toad, 10 mg/day intrathecal infusion)?
Answer: 0

Question: What about the “Gait Normal 0” value ([1]; open label sheep #518 Sandy, 5 mg/day intrathecal infusion) of the same compound?
Answer: 0

Question: What about the “Gait Normal 0” value ([1]; open label sheep Dot #85, 15 mg/day intrathecal infusion) of the same compound?
Answer: 0

Question: And the “Gait Normal 0” value ([1]; open label sheep Wacko #83, 15 mg/day intrathecal infusion)?
Answer: 0

Question: What about the “Gait Normal 0” value ([1]; open label sheep Yacko #91, 15 mg/day intrathecal infusion) of the same compound?
Answer: 0

Question: And the pain relief (Acute Pain Sheep Model; closed-label study, 5 or 15 mg/day intrathecal)?
Answer: significant pain relief

Question: And the pain relief (Acute Pain Sheep Model; open-label trial, all treated animals, 5-15 mg/day intrathecal for 43 days)?
Answer: significant pain relief

Question: And the inflammatory lesions ([2]; any sheep receiving midazolam alone in the acute pain sheep study)?
Answer: no significant inflammatory lesions were observed

Question: What about the “behavioral, toxicological, or histopathologic changes related to the infusion” value ([2]; closed label sheep, continuous infusion 5 or 15 mg/day) of the same compound?
Answer: did not produce any behavioral, toxicological, or histopathologic changes

Question: And the Histology [2, 4]?
Answer: mild catheter reaction

Question: What about the Necropsy [2, 4] of the same compound?
Answer: no gross lesions noted

Question: What about the Histology [2, 5] of the same compound?
Answer: mild catheter reaction

Question: And the Necropsy [2, 5]?
Answer: no gross lesions noted

Question: What about the Histology [2, 6] of the same compound?
Answer: mild catheter reaction

Question: And the Necropsy [2, 6]?
Answer: No obvious lesions where detected

Question: And the Histology [2, 7]?
Answer: mild catheter reaction

Question: What about the Necropsy [2, 7] of the same compound?
Answer: no gross lesions noted

Question: What about the Histology [2, 8] of the same compound?
Answer: mild catheter reaction

Question: And the Necropsy [2, 8]?
Answer: no gross lesions noted

Question: What about the Histology [2, 9] of the same compound?
Answer: mild catheter reaction

Question: What about the Necropsy [2, 9] of the same compound?
Answer: no gross lesions noted

Question: What about the clinical symptoms ([2]; open label sheep #457 Tazz, 15 mg/day, 43 days) of the same compound?
Answer: No clinical symptoms

Question: What about the clinical symptoms ([2]; open label sheep #498 Toad, 10 mg/day, 43 days) of the same compound?
Answer: No clinical symptoms

Question: What about the clinical symptoms ([2]; open label sheep #518 Sandy, 5 mg/day, 43 days) of the same compound?
Answer: No clinical symptoms

Question: And the Histology [2, 10]?
Answer: mild catheter reaction

Question: And the Necropsy [2, 10]?
Answer: no gross lesions noted

Question: And the Histology [2, 11]?
Answer: mild catheter reaction

Question: What about the Necropsy [2, 11] of the same compound?
Answer: no gross lesions noted

Question: And the Histology [2, 12]?
Answer: mild catheter reaction

Question: What about the Necropsy [2, 12] of the same compound?
Answer: no gross lesions noted

Question: And the “behavioral, toxicological, or histopathologic changes related to the infusion” value ([2]; open label sheep, continuous infusion 3-15 mg/day, 43 days)?
Answer: did not produce any behavioral, toxicological, or histopathologic changes

Question: What about the “Gross Exam Post Mortum” value ([3]; CSF, double blinded study, individual sheep, dose group (5 or 15 mg/day or saline) not given, hydrochloride) of the same compound?
Answer: cloudy; also recorded: Colorless; also recorded: clear; also recorded: Pale pink; also recorded: Cloudy**

Question: And the “Glucose Post Mortum” value [3, 13]?
Answer: 35 mg/dL and 25 mg/dL and 31 mg/dL and 38 mg/dL and 24 mg/dL and 47 mg/dL and 34 mg/dL

Question: And the “RBC Count Post Mortum” value [3, 13]?
Answer: 480 µL⁻¹ and 725 µL⁻¹ and 4250 µL⁻¹ and 63 µL⁻¹ and 2 µL⁻¹ and 4 µL⁻¹ and 1325 µL⁻¹

Question: What about the “Total Protein Post Mortum” value [3, 13] of the same compound?
Answer: 73 mg/dL and 40 mg/dL and 47 mg/dL and 35 mg/dL and 59 mg/dL and 39 mg/dL and 42 mg/dL

Question: And the “WBC Count Post Mortum” value [3, 13]?
Answer: 12 µL⁻¹ and 80 µL⁻¹ and 22 µL⁻¹ and 8 µL⁻¹ and 1 µL⁻¹ and 4 µL⁻¹ and 29 µL⁻¹

Question: And the “Routine Cultures Post Mortum” value ([3]; CSF, individual sheep, cell wraps 'No' / 'Growth', dose group not given)?
Answer: No

Question: What about the “CSF RBC Count Post Mortum” value [3, 14] of the same compound?
Answer: 772 µL⁻¹

Question: And the “CSF WBC Count Post Mortum” value [3, 14]?
Answer: 4 µL⁻¹

Question: And the “CSF Glucose Post Mortum” value [3, 15]?
Answer: 36 mg/dL

Question: And the “CSF RBC Count Post Mortum” value [3, 15]?
Answer: 56 µL⁻¹

Question: And the “CSF Total Protein Post Mortum” value [3, 15]?
Answer: 46.1 mg/dL

Question: What about the “CSF WBC Count Post Mortum” value [3, 15] of the same compound?
Answer: 206 µL⁻¹

Question: And the “CSF Glucose Post Mortum” value [3, 16]?
Answer: 40 mg/dL

Question: And the “CSF RBC Count Post Mortum” value [3, 16]?
Answer: 2160 µL⁻¹

Question: And the “CSF Total Protein Post Mortum” value [3, 16]?
Answer: 39.6 mg/dL

Question: And the “CSF WBC Count Post Mortum” value [3, 16]?
Answer: 36 µL⁻¹
